Key:
Assay type in all cases: in vivo
[1] = tested on: diamondback moth (Plutella xylostella); experiment: Test Method 4: sprayed cabbage leaves fed to second instar diamondback moth; conditions: 120 h, second instar larvae, after 5 days, 25°C, read-out: mortality of insects
Experimental: (§1) Next, an efficacy of the present compound on controlling harmful arthropods is shown by Test examples. The following tests in the test examples below were conducted at 25°C.
Test compounds are made to a formulation according to a similar method to that described in the Formulation example 1, and thereto is added water containing 0.03 v/v% of Shindain (registered trademark) to prepare a diluted solution containing a prescribed concentration of the test compound.
(§2) Cabbage (Brassicae oleracea) seedling (on the developmental stage of the second to third true leaf) is planted in a cup, and the diluted solutions are sprayed into the seedling at a ratio of 20 mL/seedling. Thereafter, the stem and leaf thereof are cut out and then is installed into a cup that is covered with filter paper on the bed of the cup. Five (5) diamondback moth (Plutella xylostella) at the second instar larval stage are released into the cup. After 5 days, the number of the surviving insects is counted, and the mortality of insects is calculated by the following equation. [formula]

[2] = tested on: cotton worm (Spodoptera litura); experiment: Test Method 9: sprayed cabbage seedling, third instar cotton worm (Formulation example 5); conditions: 144 h, third instar larvae, after 6 days, 25°C, read-out: controlling value
Experimental: (§3) The following tests in the test examples below were conducted at 25°C.
(§4) Cabbage (Brassicae oleracea) seedling (on the developmental stage of the third to fourth true leaf) is planted in a cup, and the diluted solutions are sprayed into the seedling at a ratio of 20 mL/seedling. Thereafter, ten (10) cotton worm (Spodoptera litura) at the third instar larval stage are released onto the seedling. After 6 days, the number of the surviving insects is counted, and the mortality of insects is calculated by the following equation. [formula]

[3] = tested on: cotton aphids (Aphis gossypii); experiment: Test Method 11: foliar spray on cucumber seedling infested with cotton aphids (Formulation example 5); conditions: 120 h, spray 10 mL/seedling, examined after 5 days, 25°C, read-out: controlling value
[4] = tested on: cotton aphids (Aphis gossypii); experiment: Test Method 1: foliar spray on cucumber seedling infested with cotton aphids (Formulation example 1); conditions: 120 h, spray 10 mL/seedling, examined after 5 days, 25°C, read-out: controlling value
[5] = tested on: diamondback moth (Plutella xylostella); experiment: Test Method 10: sprayed cabbage seedling, third instar diamondback moth (Formulation example 5); conditions: 144 h, third instar larvae, after 6 days, 25°C, read-out: controlling value
Experimental: as §3
as §4, with “diamondback moth (Plutella xylostella)” for “cotton worm (Spodoptera litura)”

[6] = tested on: common house mosquitos (Culex pipiens pallens); experiment: Test Method 12: mosquito larvae released into diluted solution; conditions: 24 h, last instar larvae, after 1 day, 25°C, read-out: controlling value
Experimental: as §3
Into the diluted solution, 30 common house mosquitos (Culex pipiens pallens) at the last instar larval stage are released, and after 1 day, the state of the house mosquito larvae is examined, and the mortality of insects is calculated by the following equation. [formula]

[7] = tested on: cotton worm (Spodoptera litura); experiment: Test Method 3: sprayed cabbage leaves fed to second instar cotton worm; conditions: 120 h, second instar larvae, after 5 days, 25°C, read-out: mortality of insects
Experimental: as §3
as §2, with “cotton worm (Spodoptera litura)” for “diamondback moth (Plutella xylostella)”

[8] = tested on: housefly (Musca domestica); experiment: Test Method 8: coated container contact test, housefly; conditions: 24 h, 40 mg/m^2, female adults, after one (1) day, 25°C, read-out: mortality of insects
Experimental: as §1
Acetone solution in which test compounds are adjusted to 800 ppm are prepared, and the solution is poured into a container having an internal volume of 20 mL, and the solution is coated uniformly on an inner face of the container such that the test compound is made to be 40 mg/m^2, and the container is then dried.
Five (5) housefly (Musca domestica) female adults are placed in the container, and the cup is covered with the lid. After the prescribed timing is passed, the state of the housefly is examined, and the mortality of insects is calculated by the following equation. [formula]

Structure (SMILES)	mortality at 500 ppm [1]	mortality at 200 ppm [2]	mortality at 50 ppm [3]	mortality at 200 ppm [3]	mortality at 500 ppm [4]	mortality at 50 ppm [5]	mortality at 200 ppm [5]	mortality at 3.5 ppm [6]	mortality at 500 ppm [7]	mortality at 50 ppm [2]	mortality at 40 mg/m2 [8]
CCS(=O)(=O)c1c(C(=O)N(C)c2nc3cccc(F)c3s2)nc2ccc(I)cn12 [compound 22]	≥ 80%	≥ 80%	≥ 90%	≥ 90%	≥ 90%	≥ 80%	≥ 80%	≥ 90%	≥ 80%	–	–
CCS(=O)(=O)c1c(C(=O)N(C)c2nc3ccc(F)cc3s2)nc2ccc(I)cn12 [compound 23]	≥ 80%	≥ 80%	≥ 90%	≥ 90%	≥ 90%	≥ 80%	–	≥ 90%	≥ 80%	≥ 80%	–
CCS(=O)(=O)c1c(C(=O)N(C)c2nc3cc(Cl)ccc3s2)nc2ccc(I)cn12 [compound 29]	≥ 80%	≥ 80%	–	≥ 90%	≥ 90%	≥ 80%	≥ 80%	≥ 90%	≥ 80%	≥ 80%	–
CCS(=O)(=O)c1c(C(=O)N(C)c2nc3ccccc3s2)nc2ccc(I)cn12 [compound 31]	≥ 80%	≥ 80%	≥ 90%	≥ 90%	≥ 90%	≥ 80%	≥ 80%	≥ 90%	≥ 80%	≥ 80%	–
CCS(=O)(=O)c1c(C(=O)N(C)c2nc3c(F)cc(F)cc3s2)nc2ccc(I)cn12 [compound 35]	≥ 80%	≥ 80%	–	–	≥ 90%	≥ 80%	≥ 80%	≥ 90%	≥ 80%	≥ 80%	–
CCS(=O)(=O)c1c(C(=O)N(C)c2nc3ccc(F)cc3o2)nc2ccc(I)cn12 [compound 40]	≥ 80%	–	–	≥ 90%	≥ 90%	–	–	≥ 90%	–	–	–
CCS(=O)(=O)c1c(C(=O)N(C)c2nc3cc(Cl)ccc3o2)nc2ccc(I)cn12 [compound 41]	≥ 80%	–	≥ 90%	≥ 90%	≥ 90%	≥ 80%	≥ 80%	≥ 90%	–	–	–
CCS(=O)(=O)c1c(C(=O)N(C)c2nc3cc(F)c(F)cc3o2)nc2ccc(I)cn12 [compound 42]	–	–	–	–	≥ 90%	–	–	≥ 90%	≥ 80%	–	–
CCS(=O)(=O)c1c(C(=O)N(C)c2nc3cc(F)c(F)cc3s2)nc2ccc(Br)cn12 [compound 43]	≥ 80%	≥ 80%	–	≥ 90%	–	–	–	–	≥ 80%	≥ 80%	≥ 80%
CCS(=O)(=O)c1cccnc1C(=O)N(C)c1nc2cc(C(F)(F)F)ccc2n1C [compound 56]	≥ 80%	–	–	–	≥ 90%	–	–	≥ 90%	–	–	–
CCSc1c(C(=O)N(C)c2nc3cc(F)ccc3n2C)nc2ccc(I)cn12 [compound 70]	–	–	≥ 90%	≥ 90%	≥ 90%	–	–	≥ 90%	–	–	–
CCS(=O)(=O)c1c(C(=O)N(C)c2nc3ncc(F)cc3s2)nc2ccc(I)cn12 [compound 76]	≥ 80%	≥ 80%	–	≥ 90%	≥ 90%	≥ 80%	≥ 80%	≥ 90%	≥ 80%	≥ 80%	–
CCS(=O)(=O)c1cc(-c2ccccn2)cnc1C(=O)N(C)c1nc2cc(F)c(F)cc2s1 [compound 109]	≥ 80%	≥ 80%	≥ 90%	≥ 90%	≥ 90%	≥ 80%	≥ 80%	≥ 90%	≥ 80%	≥ 80%	–
CCS(=O)(=O)c1cc(-c2ncccn2)cnc1C(=O)N(C)c1nc2cc(F)c(F)cc2s1 [compound 111]	≥ 80%	≥ 80%	≥ 90%	≥ 90%	≥ 90%	≥ 80%	≥ 80%	≥ 90%	≥ 80%	≥ 80%	–
CCS(=O)(=O)c1cc(C2CC2)cnc1C(=O)N(C)c1nc2cc(F)c(F)cc2s1 [compound 115]	≥ 80%	≥ 80%	≥ 90%	≥ 90%	≥ 90%	≥ 80%	≥ 80%	≥ 90%	≥ 80%	≥ 80%	–
CCOc1cnc(C(=O)N(C)c2nc3cc(F)c(F)cc3s2)c(S(=O)(=O)CC)c1 [compound 125]	≥ 80%	≥ 80%	≥ 90%	≥ 90%	≥ 90%	≥ 80%	≥ 80%	≥ 90%	≥ 80%	≥ 80%	–
CCS(=O)(=O)c1ccc(-c2ncccn2)nc1C(=O)N(C)c1nc2cc(F)c(F)cc2s1 [compound 130]	≥ 80%	≥ 80%	≥ 90%	≥ 90%	≥ 90%	≥ 80%	≥ 80%	≥ 90%	≥ 80%	≥ 80%	–
CCS(=O)(=O)c1ccc(-n2cncn2)nc1C(=O)N(C)c1nc2cc(F)c(F)cc2s1 [compound 131]	≥ 80%	≥ 80%	–	–	–	≥ 80%	≥ 80%	≥ 90%	≥ 80%	–	–
CCS(=O)(=O)c1ccc(NC)nc1C(=O)N(C)c1nc2cc(F)c(F)cc2s1 [compound 134]	≥ 80%	≥ 80%	≥ 90%	≥ 90%	≥ 90%	≥ 80%	≥ 80%	≥ 90%	≥ 80%	≥ 80%	–
CCS(=O)(=O)c1ccc(N(C)C)nc1C(=O)N(C)c1nc2cc(F)c(F)cc2s1 [compound 135]	≥ 80%	–	≥ 90%	≥ 90%	–	≥ 80%	≥ 80%	≥ 90%	≥ 80%	–	–
CCS(=O)(=O)c1c(C(=O)N(C)c2nc3cc(F)c(F)cc3s2)nn(C)c1C1CC1 [compound 144]	≥ 80%	–	–	≥ 90%	≥ 90%	≥ 80%	≥ 80%	≥ 90%	≥ 80%	–	–
